In article PMC11868595, “Safety, pharmacokinetics and efficacy of HA121-28 in patients with advanced solid tumors and RET fusion-positive non-small-cell lung cancer: a multicenter, open-label, single-arm phase 1/2 trial” (Signal Transduction and Targeted Therapy, 2025):
Where two headings read alike, the source gives them in different places.

Legend:
[1] = target: KDR (Homo sapiens, UniProt P35968); test: Tyrosine kinase inhibition; format: biochemical
[2] = target: HER-2 (Homo sapiens, UniProt P04626); test: Tyrosine kinase inhibition; format: biochemical; conditions: read-out: IC50, HER2
[3] = target: FLT3 (Homo sapiens, UniProt P36888); test: Tyrosine kinase inhibition; format: biochemical
[4] = system: VEGFR and ERK activation; test: VEGF165-stimulated activation of VEGFR and ERK in HUVEC cells; format: cell-based, human; conditions: 50 ng/mL VEGF165, concentration-dependent
[5] = Single-dose toxicity; format: in vivo, Beagle dogs; conditions: single oral dose 500 and 1000 mg/kg
Description: (§1) mg/kg. The maximum tolerated dose (MTD) was 500 mg/kg. Gastrointestinal, hepatic, and immune system toxicity may have contributed to the rat deaths.
(§2) 2.2. Dose expansion phase
(§3) […] To investigate the efficacy of HA121- 28 tablets in patients with advanced solid tumors.
(§4) This study is a single- arm, open- label, dose-escalation, and dose-expansion phase 1 clinical studywith single and multiple dosing.

[6] = system: SGC-7901 cells; test: Tumor cell proliferation in vitro; format: cell-based, human; conditions: SGC7901
[7] = Plasma protein binding; format: in vitro ADME; conditions: rats
[8] = system: 8305C cells; test: Tumor cell proliferation in vitro; format: cell-based
[9] = target: FGFR4 (Homo sapiens, UniProt P22455); test: Tyrosine kinase inhibition; format: biochemical
FGFR4, sequence (P22455 22-802): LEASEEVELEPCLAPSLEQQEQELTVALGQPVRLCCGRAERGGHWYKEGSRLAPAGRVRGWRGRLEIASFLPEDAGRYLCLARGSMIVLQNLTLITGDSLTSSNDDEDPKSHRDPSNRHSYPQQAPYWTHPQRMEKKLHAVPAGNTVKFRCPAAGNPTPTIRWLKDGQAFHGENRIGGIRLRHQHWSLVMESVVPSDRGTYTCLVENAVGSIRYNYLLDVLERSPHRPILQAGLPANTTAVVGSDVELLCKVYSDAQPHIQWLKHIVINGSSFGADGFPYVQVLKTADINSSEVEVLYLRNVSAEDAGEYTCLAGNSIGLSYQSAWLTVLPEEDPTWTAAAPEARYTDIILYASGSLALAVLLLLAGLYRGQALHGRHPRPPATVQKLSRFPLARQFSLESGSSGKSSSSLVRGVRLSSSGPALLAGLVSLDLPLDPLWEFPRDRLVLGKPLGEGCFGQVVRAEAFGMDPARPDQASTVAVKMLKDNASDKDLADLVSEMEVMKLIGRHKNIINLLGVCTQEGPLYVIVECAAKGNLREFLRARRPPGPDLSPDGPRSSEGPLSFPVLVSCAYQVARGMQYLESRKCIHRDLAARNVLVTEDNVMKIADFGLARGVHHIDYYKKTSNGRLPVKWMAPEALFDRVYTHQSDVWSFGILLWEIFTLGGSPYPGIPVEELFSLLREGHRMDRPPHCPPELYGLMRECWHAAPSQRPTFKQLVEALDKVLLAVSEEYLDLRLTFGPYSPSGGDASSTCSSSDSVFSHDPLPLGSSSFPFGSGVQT

[10] = system: ECA-109 cells; test: Tumor cell proliferation in vitro; format: cell-based, human
[11] = target: BLK (Homo sapiens, UniProt P51451); test: Tyrosine kinase inhibition; format: biochemical
BLK, sequence (P51451 whole entry): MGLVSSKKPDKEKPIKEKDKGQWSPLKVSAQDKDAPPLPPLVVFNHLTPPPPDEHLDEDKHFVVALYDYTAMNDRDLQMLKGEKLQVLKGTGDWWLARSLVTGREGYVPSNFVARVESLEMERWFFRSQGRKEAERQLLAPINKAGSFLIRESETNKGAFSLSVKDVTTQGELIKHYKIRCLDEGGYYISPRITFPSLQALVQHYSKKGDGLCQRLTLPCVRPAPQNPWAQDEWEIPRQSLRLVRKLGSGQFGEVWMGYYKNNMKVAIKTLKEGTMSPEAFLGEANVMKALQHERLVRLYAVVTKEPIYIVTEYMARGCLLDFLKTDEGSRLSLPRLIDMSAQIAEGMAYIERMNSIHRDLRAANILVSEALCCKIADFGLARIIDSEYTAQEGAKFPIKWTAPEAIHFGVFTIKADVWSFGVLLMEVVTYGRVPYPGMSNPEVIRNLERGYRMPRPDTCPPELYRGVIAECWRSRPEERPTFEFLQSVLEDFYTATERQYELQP

[12] = Dog plasma kinetics; format: in vivo
[13] = Plasma protein binding; format: in vitro ADME; conditions: mice
[14] = Metabolites in plasma; conditions: monkeys
[15] = system: RET and ERK activation; test: Activation of RET and ERK in TT cells; format: cell-based, human; conditions: concentration-dependent
[16] = Single-dose toxicity; format: in vivo, SD rats; conditions: single oral gavage
Description: as §1, §2, §3, §4

[17] = Metabolites in plasma; conditions: dogs
[18] = Plasma protein binding; format: in vitro ADME; conditions: humans
[19] = system: A431 cells; test: Tumor cell proliferation in vitro; format: cell-based, human; conditions: A431; read-out: IC50, proliferation
[20] = Ames test; conditions: in vitro Ames test
[21] = system: EGFR and ERK activation; test: EGF-stimulated activation of EGFR and ERK in A431 cells; format: cell-based, human; conditions: 10 ng/mL EGF, concentration-dependent
[22] = 28-day repeated dose toxicity; format: in vivo, SD rats
[23] = target: FMS (Homo sapiens, UniProt P07333); test: Tyrosine kinase inhibition; format: biochemical
FMS, sequence (P07333 20-972): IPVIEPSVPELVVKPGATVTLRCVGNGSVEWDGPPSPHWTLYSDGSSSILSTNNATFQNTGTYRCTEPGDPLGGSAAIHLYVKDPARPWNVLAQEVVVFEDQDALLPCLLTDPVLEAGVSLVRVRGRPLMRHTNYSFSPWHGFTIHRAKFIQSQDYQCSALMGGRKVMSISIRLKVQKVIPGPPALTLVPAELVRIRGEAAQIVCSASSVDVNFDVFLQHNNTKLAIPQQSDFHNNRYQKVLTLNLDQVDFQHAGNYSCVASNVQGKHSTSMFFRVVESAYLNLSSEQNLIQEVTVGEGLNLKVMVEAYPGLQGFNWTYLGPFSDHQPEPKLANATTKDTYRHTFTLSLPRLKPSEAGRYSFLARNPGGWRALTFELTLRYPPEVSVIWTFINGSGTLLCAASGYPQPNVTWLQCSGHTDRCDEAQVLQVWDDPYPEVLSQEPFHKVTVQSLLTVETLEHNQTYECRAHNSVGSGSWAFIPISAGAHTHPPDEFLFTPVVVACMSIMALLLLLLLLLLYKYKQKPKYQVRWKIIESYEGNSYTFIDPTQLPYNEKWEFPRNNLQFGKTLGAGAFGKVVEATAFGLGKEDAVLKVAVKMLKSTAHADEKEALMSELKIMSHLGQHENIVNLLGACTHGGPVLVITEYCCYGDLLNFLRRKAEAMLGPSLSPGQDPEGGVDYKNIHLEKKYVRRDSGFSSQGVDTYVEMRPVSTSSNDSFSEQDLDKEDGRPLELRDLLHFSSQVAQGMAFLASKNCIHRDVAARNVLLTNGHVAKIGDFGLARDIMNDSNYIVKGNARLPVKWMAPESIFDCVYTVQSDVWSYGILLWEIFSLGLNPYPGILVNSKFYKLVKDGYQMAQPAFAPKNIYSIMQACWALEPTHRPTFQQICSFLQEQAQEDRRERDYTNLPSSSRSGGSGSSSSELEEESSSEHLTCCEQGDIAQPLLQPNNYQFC

[24] = system: arterial ring angiogenesis; test: Rat arterial ring angiogenesis
[25] = system: HUVEC cells; conditions: 50 ng/mL VEGF165
[26] = Safety pharmacology: respiratory function and neurological behavior; format: in vivo, rats; conditions: single oral dose 30, 100, and 300 mg/kg
[27] = system: Q-T interval; conditions: single oral dose 5, 10, and 15 mg/kg
[28] = system: HT29 cells; test: Tumor cell proliferation in vitro; format: cell-based
[29] = target: RON (Homo sapiens, UniProt Q04912); test: Tyrosine kinase inhibition; format: biochemical
RON, sequence (Q04912 25-1400): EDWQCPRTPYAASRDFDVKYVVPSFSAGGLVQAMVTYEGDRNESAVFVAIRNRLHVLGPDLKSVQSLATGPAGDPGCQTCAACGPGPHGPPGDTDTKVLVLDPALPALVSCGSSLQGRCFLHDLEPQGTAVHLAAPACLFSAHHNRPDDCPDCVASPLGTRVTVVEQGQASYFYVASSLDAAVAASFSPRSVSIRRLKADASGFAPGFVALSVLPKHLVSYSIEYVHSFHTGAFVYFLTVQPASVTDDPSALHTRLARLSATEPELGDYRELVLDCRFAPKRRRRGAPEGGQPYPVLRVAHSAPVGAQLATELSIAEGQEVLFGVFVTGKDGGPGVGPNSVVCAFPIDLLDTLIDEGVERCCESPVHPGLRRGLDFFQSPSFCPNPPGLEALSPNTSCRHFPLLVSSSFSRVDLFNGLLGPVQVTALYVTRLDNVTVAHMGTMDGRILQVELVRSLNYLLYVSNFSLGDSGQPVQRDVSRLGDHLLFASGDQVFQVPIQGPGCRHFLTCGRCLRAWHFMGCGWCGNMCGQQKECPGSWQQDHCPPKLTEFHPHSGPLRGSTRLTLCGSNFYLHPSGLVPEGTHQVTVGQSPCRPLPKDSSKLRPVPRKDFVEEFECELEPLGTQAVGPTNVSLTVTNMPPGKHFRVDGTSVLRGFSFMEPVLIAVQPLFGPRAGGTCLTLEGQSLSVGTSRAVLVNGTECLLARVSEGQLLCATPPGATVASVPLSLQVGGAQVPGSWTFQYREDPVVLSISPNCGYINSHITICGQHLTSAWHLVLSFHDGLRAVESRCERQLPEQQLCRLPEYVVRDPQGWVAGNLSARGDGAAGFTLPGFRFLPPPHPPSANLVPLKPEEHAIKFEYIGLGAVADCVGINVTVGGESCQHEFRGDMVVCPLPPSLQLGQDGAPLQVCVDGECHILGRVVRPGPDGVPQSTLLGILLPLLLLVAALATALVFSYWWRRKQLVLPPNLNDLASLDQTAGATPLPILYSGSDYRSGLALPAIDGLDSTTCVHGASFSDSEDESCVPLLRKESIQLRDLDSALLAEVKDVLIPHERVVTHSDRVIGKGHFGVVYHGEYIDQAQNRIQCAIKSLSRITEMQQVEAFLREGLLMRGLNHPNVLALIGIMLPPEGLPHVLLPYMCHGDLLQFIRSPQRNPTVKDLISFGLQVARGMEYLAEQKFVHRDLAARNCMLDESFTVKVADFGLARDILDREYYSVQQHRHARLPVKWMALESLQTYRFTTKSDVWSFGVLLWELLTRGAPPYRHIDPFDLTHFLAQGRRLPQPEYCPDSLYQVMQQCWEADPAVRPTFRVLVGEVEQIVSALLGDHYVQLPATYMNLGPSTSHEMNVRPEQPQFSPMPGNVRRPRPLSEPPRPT

[30] = Metabolites in plasma; conditions: rats
[31] = system: MDA-MB-231 cells; test: Tumor cell proliferation in vitro; format: cell-based

KDR, sequence (P35968 20-1356): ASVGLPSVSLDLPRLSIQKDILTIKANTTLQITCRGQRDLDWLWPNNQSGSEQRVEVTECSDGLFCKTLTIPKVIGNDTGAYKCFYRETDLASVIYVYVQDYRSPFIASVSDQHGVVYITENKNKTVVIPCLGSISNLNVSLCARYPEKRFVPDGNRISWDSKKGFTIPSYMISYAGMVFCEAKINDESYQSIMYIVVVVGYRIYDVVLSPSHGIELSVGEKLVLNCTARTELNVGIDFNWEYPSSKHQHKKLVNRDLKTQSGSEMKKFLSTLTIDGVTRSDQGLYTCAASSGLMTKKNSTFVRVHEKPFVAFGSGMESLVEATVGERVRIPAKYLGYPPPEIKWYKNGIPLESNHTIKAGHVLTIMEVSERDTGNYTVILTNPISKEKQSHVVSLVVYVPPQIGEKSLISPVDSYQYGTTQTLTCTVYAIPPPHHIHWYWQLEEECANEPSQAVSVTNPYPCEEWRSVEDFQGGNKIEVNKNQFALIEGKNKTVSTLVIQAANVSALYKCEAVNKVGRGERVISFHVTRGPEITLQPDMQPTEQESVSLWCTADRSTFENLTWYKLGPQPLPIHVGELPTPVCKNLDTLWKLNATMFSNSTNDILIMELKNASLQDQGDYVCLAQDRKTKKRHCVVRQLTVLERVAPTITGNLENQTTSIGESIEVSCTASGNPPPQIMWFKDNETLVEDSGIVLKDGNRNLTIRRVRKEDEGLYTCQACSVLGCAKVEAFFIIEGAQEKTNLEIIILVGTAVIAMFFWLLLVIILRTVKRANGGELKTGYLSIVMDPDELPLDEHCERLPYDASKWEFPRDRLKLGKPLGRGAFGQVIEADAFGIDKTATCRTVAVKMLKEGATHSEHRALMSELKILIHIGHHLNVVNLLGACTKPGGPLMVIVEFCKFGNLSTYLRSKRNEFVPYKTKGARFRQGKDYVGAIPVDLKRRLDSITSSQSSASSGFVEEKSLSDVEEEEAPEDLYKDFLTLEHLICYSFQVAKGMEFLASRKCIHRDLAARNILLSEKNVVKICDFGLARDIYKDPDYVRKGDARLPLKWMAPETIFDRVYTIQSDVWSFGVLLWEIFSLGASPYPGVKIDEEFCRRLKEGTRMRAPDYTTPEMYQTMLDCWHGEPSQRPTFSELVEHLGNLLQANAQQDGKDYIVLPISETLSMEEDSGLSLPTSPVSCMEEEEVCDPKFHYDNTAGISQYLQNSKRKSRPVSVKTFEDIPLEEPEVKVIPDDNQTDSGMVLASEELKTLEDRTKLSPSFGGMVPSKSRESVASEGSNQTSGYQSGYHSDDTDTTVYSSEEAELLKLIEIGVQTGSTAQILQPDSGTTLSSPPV

`COc1cc2c(Nc3ccc(Br)cc3F)ncnc2cc1OCCCCN(C)C.Cl.Cl` [HA121-28, N-(4-bromo-2-fluorophenyl)-7-(4-(dimethylamino)butoxy)-6-methoxy quinazolin-4-amine dihydrochloride] showed an IC50 [1] of 35.7 nM, an IC50 [2] of 42 nM and an IC50 [3] of 556 nM. The “activation of VEGFR and downstream ERK” value [4] was “significantly inhibited”, the MTD [5] was 1000 mg/kg and the IC50 [6] was 4360 ± 338 nM. For the same compound, the “plasma protein binding rate” value [7] was 92.4±1.28%, the IC50 [8] was 623 ± 80.3 nM and the IC50 [9] was 953 nM. For the same compound, the IC50 [10] was 6663 ± 54.5 nM, the IC50 [11] was 201 nM and the AUC0-72h ([12]; 7 consecutive days (5 mg/kg)) was 639 ± 69.0 ng·h/mL. The “AUC0-∞” value ([12]; 7 consecutive days (5 mg/kg)) was 655 ± 72.2 ng·h/mL, the CL ([12]; 7 consecutive days (5 mg/kg)) was 175 ± 21.5 mL/min/kg and the Cmax ([12]; 7 consecutive days (5 mg/kg)) was 30.6 ± 3.25 ng/mL. For the same compound, the “MRT0-∞” value ([12]; 7 consecutive days (5 mg/kg)) was 18.5 ± 1.89 h, the Tmax ([12]; 7 consecutive days (5 mg/kg)) was 6.17 ± 2.48 h and the Vd ([12]; 7 consecutive days (5 mg/kg)) was 214 ± 25.1 L/kg. For the same compound, the t1/2 ([12]; 7 consecutive days (5 mg/kg)) was 14.2 ± 1.19 h, the “F (oral bioavailability)” value ([12]; dog) was 56.0% and the AUC0-72h ([12]; high dose (10 mg/kg)) was 837 ± 207 ng·h/mL. For the same compound, the “AUC0-∞” value ([12]; high dose (10 mg/kg)) was 848 ± 212 ng·h/mL, the CL ([12]; high dose (10 mg/kg)) was 212 ± 75.2 mL/min/kg and the Cmax ([12]; high dose (10 mg/kg)) was 58.9 ± 26.7 ng/mL. For the same compound, the MRT0-72h ([12]; high dose (10 mg/kg)) was 14.8 ± 1.96 h, the “MRT0-∞” value ([12]; high dose (10 mg/kg)) was 15.7 ± 2.45 h and the Tmax ([12]; high dose (10 mg/kg)) was 2.17 ± 0.753 h. It also gave a Vd ([12]; high dose (10 mg/kg)) of 197 ± 57.5 L/kg, a t1/2 ([12]; high dose (10 mg/kg)) of 11.0 ± 1.51 h and an AUC0-72h ([12]; intravenous (2.5 mg/kg)) of 489 ± 73.0 ng·h/mL. For the same compound, the “AUC0-∞” value ([12]; intravenous (2.5 mg/kg)) was 493 ± 73.7 ng·h/mL, the C5min ([12]; intravenous (2.5 mg/kg)) was 124 ± 17.6 ng/mL and the CL ([12]; intravenous (2.5 mg/kg)) was 86.3 ± 14.8 mL/min/kg. The MRT0-72h ([12]; intravenous (2.5 mg/kg)) was 10.9 ± 1.30 h, the “MRT0-∞” value ([12]; intravenous (2.5 mg/kg)) was 11.5 ± 1.51 h and the Vd ([12]; intravenous (2.5 mg/kg)) was 85.0 ± 27.0 L/kg. The t1/2 ([12]; intravenous (2.5 mg/kg)) was 11.2 ± 1.70 h, the AUC0-72h ([12]; low dose (2.5 mg/kg)) was 274 ± 68.2 ng·h/mL and the “AUC0-∞” value ([12]; low dose (2.5 mg/kg)) was 279 ± 70.5 ng·h/mL. The CL ([12]; low dose (2.5 mg/kg)) was 157 ± 37.3 mL/min/kg, the Cmax ([12]; low dose (2.5 mg/kg)) was 13.4 ± 2.71 ng/mL and the MRT0-72h ([12]; low dose (2.5 mg/kg)) was 16.3 ± 2.03 h. For the same compound, the “MRT0-∞” value ([12]; low dose (2.5 mg/kg)) was 17.6 ± 2.45 h, the Tmax ([12]; low dose (2.5 mg/kg)) was 6.50 ± 3.51 h and the Vd ([12]; low dose (2.5 mg/kg)) was 160 ± 41.3 L/kg. For the same compound, the t1/2 ([12]; low dose (2.5 mg/kg)) was 11.8 ± 1.00 h, the AUC0-72h ([12]; medium dose (5 mg/kg)) was 393 ± 74.0 ng·h/mL and the “AUC0-∞” value ([12]; medium dose (5 mg/kg)) was 398 ± 75.3 ng·h/mL. The CL ([12]; medium dose (5 mg/kg)) was 217 ± 42.8 mL/min/kg, the Cmax ([12]; medium dose (5 mg/kg)) was 24.8 ± 3.90 ng/mL and the MRT0-72h ([12]; medium dose (5 mg/kg)) was 14.3 ± 1.36 h. For the same compound, the “MRT0-∞” value ([12]; medium dose (5 mg/kg)) was 15.2 ± 1.57 h, the Tmax ([12]; medium dose (5 mg/kg)) was 2.17 ± 0.753 h and the Vd ([12]; medium dose (5 mg/kg)) was 217 ± 53.6 L/kg. For the same compound, the t1/2 ([12]; medium dose (5 mg/kg)) was 11.5 ± 1.16 h, the “plasma protein binding rate” value [13] was 97.2±0.266% and the “number of metabolites found in plasma” value [14] was 4. The “activation of RET and downstream ERK” value [15] was “significantly inhibited”, the “maximum tolerated dose (MTD)” value [16] was 500 mg/kg and the “number of metabolites found in plasma” value [17] was 7. For the same compound, the “plasma protein binding rate” value [18] was 90.1±1.05%, the IC50 [19] was 775 ± 76.7 nM and the genetic toxicity [20] was “negative”. The “activation of EGFR and downstream ERK” value [21] was “significantly inhibited”, the “no observed adverse effect level (NOAEL)” value ([22]; 28-day, SD rats) was 15 mg/kg and the “highest non-severely toxic dose (HNSTD)” value ([22]; oral gavage, four consecutive weeks) was 15 mg/kg. The IC50 [23] was 2910 nM, the “rat arterial ring angiogenesis” value [24] was “able to inhibit” and the IC50 [25] was 65.4 nM. For the same compound, the “respiratory function and neurological behavior” value [26] was “did not affect”, the “Q-T interval and corrected Q-T interval” value [27] was “mild prolongation” and the IC50 [28] was 5400 ± 813 nM. For the same compound, the IC50 [29] was greater than 10000 nM, the “number of metabolites found in plasma” value [30] was 7 and the IC50 ([31]; read-out: IC50) was 10000 to 100000 nM. It also gave an IC50 ([31]; read-out: IC50, proliferation) of 10300 ± 2010 nM.
